Measured values taken from patent US11364242B2, “Treatment agents for inhibiting HIV and cancer in HIV infected patients” (UNIVERSITY OF MARYLAND, BALTIMORE, priority 2015, dated 2022).

Assays:
X4 HIV HXB2 = test: PBL infectivity assay, p24 ELISA day 7; assay type: cell-based, HIV-1; conditions: Human immunodeficiency virus 1, HXB2; PBLs from three donors
Text: (§1) PBLs were isolated from buffy coats of HIV seronegative donors (New York Blood Center). The laboratory-adapted strains HIV BaL and HIV HXB2; primary isolates HIV 92BR020, 92UG031, 93BR029, and 93UG082; and multidrug resistant molecular clone NL4329129-2 were obtained from the NIH AIDS Repository. Primary isolate 2044 was from Paul Clapham (Windeyer Institute), and 1633 and 1638 from the Institute of Human Virology (University of Maryland School of Medicine). Maraviroc, efavirenz, raltegravir, and indinavir were from the NIH AIDS Repository. INK128 was purchased from ApexBio. Proliferation of PBLs was measured by the MTT kit (Roche), following the manufacturer's directions. PBL infectivity assays were performed as described herein.
PBLs were separated from buffy coats by density centrifugation over Ficoll-Hypaque (Sigma™), and activated by culture in the presence of 1 μg/mL anti-human CD3 antibody (clone x35, Fisher Scientific™) and 2 μg/mL anti-human CD28 antibody (Clone CD28.6, eBioscience™) for 3 days. Activated cells were infected by incubation with virus at a multiplicity of infection (MOI) of 0.001 for 2 hours. […] On day 7, viral replication was measured by p24 ELISA (Coulter) in culture supernatants and cell viability was measured by MTT assays.
EC50 values were determined by variable slope nonlinear regression analysis. […]

HIV-1 1633 = test: PBL infectivity assay, primary isolate; assay type: cell-based; conditions: Human immunodeficiency virus 1, PBMC; X4 primary isolate, PBMCs, three donors; read-out: Geometric mean INK128 EC50, nM (95% CI)
Text: as §1
(§2) PBLs were separated from buffy coats by density centrifugation over Ficoll-Hypaque (Sigma™), and activated by culture in the presence of 1 μg/mL anti-human CD3 antibody (clone x35, Fisher Scientific™) and 2 μg/mL anti-human CD28 antibody (Clone CD28.6, eBioscience™) for 3 days. Activated cells were infected by incubation with virus at a multiplicity of infection (MOI) of 0.001 for 2 hours. Infected cells were washed three times with PBS and cultured in 5% CO2 at 37° C., in RPMI/10% FBS supplemented with 100 units/mL IL-2 (Roche™) and antiviral drugs, in 96-well flat-bottom plates at a density of […] PBLs per 200 μL. Following 3 d of culture, half of the medium was replaced with fresh medium containing IL-2 and antiviral drugs. On day 7, viral replication was measured by p24 ELISA (Coulter) in culture supernatants and cell viability was measured by MTT assays.
(§3) EC50 values were determined by variable slope nonlinear regression analysis. Unpaired two-tailed t tests were used to check for statistical significant differences between INK128 EC50 values of R5 HIV versus X4 HIV in infectivity assays. Nonparametric Mann-Whitney tests were used to compare each treatment group and control group in animal studies. Statistical analyses were performed using GraphPad Prism™ (version 4.0). P<0.05 was considered significant.
(§4) The antiviral activity of INK128 was investigated in PBLs infected with CCR5 (R5)-tropic and CXCR4 (X4)-tropic HIV reference strains BaL and HXB2, respectively.

HIV-1 1638 = test: PBL infectivity assay, primary isolate; assay type: cell-based; conditions: Human immunodeficiency virus 1, PBMC; X4 primary isolate, PBMCs, three donors; read-out: Geometric mean INK128 EC50, nM (95% CI)
Text: as §1, §2, §3, §4

HIV-1 2044 = test: PBL infectivity assay, primary isolate; assay type: cell-based; conditions: Human immunodeficiency virus 1, PBMC; X4 primary isolate, PBMCs, three donors; read-out: Geometric mean INK128 EC50, nM (95% CI)
Text: as §1, §2, §3, §4

HIV-1 92BR020 = test: PBL infectivity assay, primary isolate; assay type: cell-based; conditions: Human immunodeficiency virus 1, PBMC; R5 primary isolate, PBMCs, three donors; read-out: Geometric mean INK128 EC50, nM (95% CI)
Text: as §1, §2, §3, §4

HIV-1 92UG031 = test: PBL infectivity assay, primary isolate; assay type: cell-based; conditions: Human immunodeficiency virus 1, PBMC; R5 primary isolate, PBMCs, three donors; read-out: Geometric mean INK128 EC50, nM (95% CI)
Text: as §1, §2, §3, §4

HIV-1 93BR029 = test: PBL infectivity assay, primary isolate; assay type: cell-based; conditions: Human immunodeficiency virus 1, PBMC; R5 primary isolate, PBMCs, three donors; read-out: Geometric mean INK128 EC50, nM (95% CI)
Text: as §1, §2, §3, §4

HIV-1 93UG082 = test: PBL infectivity assay, primary isolate; assay type: cell-based; conditions: Human immunodeficiency virus 1, PBMC; R5 primary isolate, PBMCs, three donors; read-out: Geometric mean INK128 EC50, nM (95% CI)
Text: as §1, §2, §3, §4

R5 HIV (JRFL) = test: Real-time PCR of early reverse transcription products and integrated HIV DNA in infected PBLs; assay type: cell-based; conditions: 72 hours, PBLs from two donors
Protocol: Activated PBLs were infected with R5 and X4 HIV strains using a MOI of 0.01. Infected cells were cultured in the presence of IL-2 and different concentrations of INK128. Cell aliquots were collected at 16 and 72 hours for analyses of early products of reverse transcription and of integration, respectively, by real time PCR. Detection of early products of reverse transcription was done with primers specific for the R/U5 region (60). For detection of integrated HIV DNA, a real-time nested Alu-HIV PCR assay was used as previously described (61, 62), with the modifications described herein.
DNA was isolated using Miniblood kit (Qiagen™). PCR amplification was performed using Quantitect SYBR Green™ PCR Kit (Qiagen™) in a LightCycler™ (Biorad™). Detection of early products of reverse transcription was done in reactions containing 100 ng of DNA and the primer pair 5′-[…]-3′ (SEQ ID NO. 1) and 5′-[…]-3′ (SEQ ID NO. 2) (R/U5 region) (60). […] Amplified products were analyzed by denaturation/renaturation to verify the specific Tm. The PCR cycle at which the signal entered the exponential range was used for quantification, and HIV copy numbers were corrected for those of α-tubulin. […] As a standard curve for relative quantification of integrated DNA, the Alu-gag was first run using serial dilutions of DNA isolated from HIV infected PBLs (diluted in HIV-negative DNA). […]

[1] = tested on: non small cell lung cancer (NSCLC) A549 cells; test: A549 xenograft tumor in NSG mice; assay type: in vivo; conditions: 5 mg/kg daily ip for 4 weeks
Protocol: A xenograft tumor was induced by subcutaneous injection of 5×10^6 non small cell lung cancer (NSCLC) A549 cells in mice according to an embodiment.
A xenograft tumor was induced by subcutaneous injection of 5×10^6 non small cell lung cancer (NSCLC) A549 cells in mice. After 3 weeks, tumors became visible (˜200 mm^3, as measured with calipers). Mice were treated with INK128, or vehicle control (FIG. 10A), daily (via ip) for 4 weeks. INK-128 was used at 5 mg/kg (FIG. 10B). Tumor volume was measured at the indicated time points (FIG. 10C).

CCR5 = test: Flow cytometry quantitation of surface receptor on PBLs; conditions: IL-2, 7 days, three donors

## CC(C)n1nc(-c2ccc3oc(N)nc3c2)c2c(N)ncnc21 [INK128, 5-(4-amino-1-propan-2-ylpyrazolo[3,4-d]pyrimidin-3-yl)-1,3-benzoxazol-2-amine]
X4 HIV HXB2
  EC50: 0.038 µM
HIV-1 1633
  EC50: 17.5 nM
HIV-1 1638
  EC50: 21.2 nM
HIV-1 2044
  EC50: 36.7 nM
HIV-1 92BR020
  EC50: 1.03 nM
HIV-1 92UG031
  EC50: 10.2 nM
HIV-1 93BR029
  EC50: 4.73 nM
HIV-1 93UG082
  EC50: 2.89 nM
R5 HIV (JRFL)
  integrated provirus: decreased levels
[1]
  tumor growth: inhibits tumor growth
CCR5; CD4+ and CD8+ T cell subsets
  percentages of CCR5 expressing cells: reduced
CCR5
  CCR5 receptor density (molecules/cell): decreased
